Several values for one entry are separate records, joined by “and”; a condition that tells them apart may be missing. Identical values can stand only once. Like-named read-outs stand apart in the source and are kept apart here.
Experiment: EFdA Rat PK Studies (subcutaneous and intramuscular groups), plasma concentration by LC-MS/MS
Type: in vivo, Wistar Han rats
Settings: for Assayed Concentrations of EFdA, individual rats / Assayed Concentrations of EFdA, Mean / concentration at 0.5 h / concentration at 1 h / concentration at 4 h / concentration at 7 h / concentration at 24 h / concentration at 48 h / concentration at 72 h / concentration at 6 day / concentration at 25 day: plasma; for concentration at 0.5 h / concentration at 1 h / concentration at 4 h / concentration at 7 h / concentration at 24 h / concentration at 48 h / concentration at 72 h / concentration at 6 day / concentration at 25 day: male, Wistar Han, rat
Text: Protocol for EFdA Rat PK Studies Conducted at Charles River Laboratories, NY.
A total of seven naïve male Wistar Han rats, 200-250 g, were received from Charles River Laboratories, Kingston, N.Y. All animals were received from the supplier equipped with a surgically-implanted jugular vein catheter (JVC) for blood sample collection. Following an acclimation period, the animals were assigned to the study based on acceptable health as determined by a staff veterinarian and catheter patency. Animals were placed into two groups of 3 rats per group. Fasting of the animals before or after dosing was not required.
On Day 1 each animal in Group 1 received a single subcutaneous injection of prepared test article at a target dose level of 20 mg/kg and at a dose volume of 0.33 mL/kg. Each animal in Group 2 received a single intramuscular injection of prepared test article into a thigh muscle at a target dose level of 20 mg/kg and at a dose volume of 0.33 mL/kg. The injection sites were shaved prior to dosing and identified with an indelible marker for daily monitoring during the study. The animals were manually restrained for dosing and were not sedated. The dose suspension was mixed well by inversion before each dose to ensure homogeneity. All dosing was performed as detailed in the study protocol and was completed without incident. […] In addition, all animals are monitored twice daily by the veterinary staff for clinical abnormalities.
Blood samples were collected from the study animals as detailed in the sample collection Table 2 below.
Each blood sample for PK (250 μL) was collected from the jugular vein catheter or by venipuncture of a jugular vein. The blood was transferred to a tube containing NaF/Na2EDTA anticoagulant and inverted several times to mix. The blood samples were maintained on crushed ice before centrifugation at 2200×g for 10 minutes at 5° C. to isolate plasma. The resulting plasma samples were transferred to individual polypropylene tubes in a 96-well plate format and immediately placed on dry ice until storage at nominally −80° C. prior to analysis.
The PK plasma samples were analyzed by the Testing Facility to determine the concentration of EFdA using an LC-MS/MS Research Grade Assay (RGA-1) with sensitivity to 0.1 ng/mL. Following review of sample analysis data through Day 29, further sample analysis was discontinued and the study was terminated. The individual and mean plasma concentration-time data are presented in Tables 3 and 4 and mean concentration-time profiles are shown in FIGS. 1 and 2.

SMILES: C#C[C@]1(CO)O[C@@H](n2cnc3c(N)nc(F)nc32)C[C@@H]1O [EFdA, (2R,3S,5R)-5-(6-amino-2-fluoro-9H-purin-9-yl)-2-ethynyl-2-(hydroxymethyl)tetrahydrofuran-3-ol]
- Assayed Concentrations of EFdA, individual rats (0.5 hr, IM 20 mg/kg): 1150 ng/mL and 684 ng/mL
- Assayed Concentrations of EFdA, individual rats (0.5 hr, SC 20 mg/kg, 20 mg/kg): 1000 ng/mL and 640 ng/mL and 2210 ng/mL
- Assayed Concentrations of EFdA, individual rats (1 hr, IM 20 mg/kg): 1640 ng/mL and 1400 ng/mL
- Assayed Concentrations of EFdA, individual rats (1 hr, SC 20 mg/kg, 20 mg/kg): 1160 ng/mL and 1040 ng/mL and 3030 ng/mL
- Assayed Concentrations of EFdA, individual rats (4 hr, IM 20 mg/kg): 436 ng/mL and 733 ng/mL
- Assayed Concentrations of EFdA, individual rats (4 hr, SC 20 mg/kg, 20 mg/kg): 676 ng/mL and 708 ng/mL
- Assayed Concentrations of EFdA, individual rats (7 hr, IM 20 mg/kg): 241 ng/mL and 191 ng/mL and 426 ng/mL
- Assayed Concentrations of EFdA, individual rats (7 hr, SC 20 mg/kg, 20 mg/kg): 372 ng/mL and 216 ng/mL
- Assayed Concentrations of EFdA, individual rats (24 hr, IM 20 mg/kg): 24.7 ng/mL and 1.96 ng/mL and 32.6 ng/mL
- Assayed Concentrations of EFdA, individual rats (24 hr, SC 20 mg/kg, 20 mg/kg): 6.70 ng/mL and 14.7 ng/mL and 2.53 ng/mL
- Assayed Concentrations of EFdA, individual rats (48 hr, IM 20 mg/kg): 5.25 ng/mL and 0.369 ng/mL and 0.915 ng/mL
- Assayed Concentrations of EFdA, individual rats (48 hr, SC 20 mg/kg, 20 mg/kg): 0.713 ng/mL and 0.543 ng/mL
- Assayed Concentrations of EFdA, individual rats (72 hr, IM 20 mg/kg): 0.316 ng/mL and 0.241 ng/mL
- Assayed Concentrations of EFdA, individual rats (72 hr, SC 20 mg/kg, 20 mg/kg): 0.270 ng/mL and 0.201 ng/mL
- Assayed Concentrations of EFdA, individual rats (Day 6, IM 20 mg/kg): BQL (BQL—Below Quantitation Limit, <0.100 ng/mL) and 0.103 ng/mL
- Assayed Concentrations of EFdA, individual rats (Day 6, SC 20 mg/kg, 20 mg/kg): BQL (BQL—Below Quantitation Limit, <0.100 ng/mL)
- Assayed Concentrations of EFdA, Mean (Day 8, IM 20 mg/kg): BQL (BQL—Below Quantitation Limit, <0.100 ng/mL)
- Assayed Concentrations of EFdA, individual rats (Day 8, IM 20 mg/kg): BQL (BQL—Below Quantitation Limit, <0.100 ng/mL)
- Assayed Concentrations of EFdA, Mean (Day 8, SC 20 mg/kg): BQL (BQL—Below Quantitation Limit, <0.100 ng/mL)
- Assayed Concentrations of EFdA, individual rats (Day 8, SC 20 mg/kg): BQL (BQL—Below Quantitation Limit, <0.100 ng/mL)
- Assayed Concentrations of EFdA, Mean (Day 11, IM 20 mg/kg): BQL (BQL—Below Quantitation Limit, <0.100 ng/mL)
- Assayed Concentrations of EFdA, individual rats (Day 11, IM 20 mg/kg): BQL (BQL—Below Quantitation Limit, <0.100 ng/mL)
- Assayed Concentrations of EFdA, Mean (Day 11, SC 20 mg/kg): BQL (BQL—Below Quantitation Limit, <0.100 ng/mL)
- Assayed Concentrations of EFdA, individual rats (Day 11, SC 20 mg/kg): BQL (BQL—Below Quantitation Limit, <0.100 ng/mL)
- Assayed Concentrations of EFdA, Mean (Day 15, IM 20 mg/kg): BQL (BQL—Below Quantitation Limit, <0.100 ng/mL)
- Assayed Concentrations of EFdA, individual rats (Day 15, IM 20 mg/kg): BQL (BQL—Below Quantitation Limit, <0.100 ng/mL)
- Assayed Concentrations of EFdA, Mean (Day 15, SC 20 mg/kg): BQL (BQL—Below Quantitation Limit, <0.100 ng/mL)
- Assayed Concentrations of EFdA, individual rats (Day 15, SC 20 mg/kg): BQL (BQL—Below Quantitation Limit, <0.100 ng/mL)
- Assayed Concentrations of EFdA, Mean (Day 22, IM 20 mg/kg): BQL (BQL—Below Quantitation Limit, <0.100 ng/mL)
- Assayed Concentrations of EFdA, individual rats (Day 22, IM 20 mg/kg): BQL (BQL—Below Quantitation Limit, <0.100 ng/mL)
- Assayed Concentrations of EFdA, Mean (Day 22, SC 20 mg/kg): BQL (BQL—Below Quantitation Limit, <0.100 ng/mL)
- Assayed Concentrations of EFdA, individual rats (Day 22, SC 20 mg/kg): BQL (BQL—Below Quantitation Limit, <0.100 ng/mL)
- Assayed Concentrations of EFdA, Mean (Day 25, IM 20 mg/kg): BQL (BQL—Below Quantitation Limit, <0.100 ng/mL)
- Assayed Concentrations of EFdA, individual rats (Day 25, IM 20 mg/kg): BQL (BQL—Below Quantitation Limit, <0.100 ng/mL)
- Assayed Concentrations of EFdA, individual rats (Day 25, SC 20 mg/kg, 20 mg/kg): BQL (BQL—Below Quantitation Limit, <0.100 ng/mL)
- Assayed Concentrations of EFdA, Mean (Day 29, IM 20 mg/kg): BQL (BQL—Below Quantitation Limit, <0.100 ng/mL)
- Assayed Concentrations of EFdA, individual rats (Day 29, IM 20 mg/kg): BQL (BQL—Below Quantitation Limit, <0.100 ng/mL)
- Assayed Concentrations of EFdA, Mean (Day 29, SC 20 mg/kg): BQL (BQL—Below Quantitation Limit, <0.100 ng/mL)
- Assayed Concentrations of EFdA, individual rats (Day 29, SC 20 mg/kg): BQL (BQL—Below Quantitation Limit, <0.100 ng/mL)
- concentration at 0.5 h (intramuscular, 20 mg/kg, 0.5 hr, IM 20 mg/kg, read-out: Assayed Concentrations of EFdA, Mean): 921 ng/mL
- concentration at 0.5 h (intramuscular, 20 mg/kg, 0.5 hr, IM 20 mg/kg, read-out: Assayed Concentrations of EFdA, individual rats): 929 ng/mL
- concentration at 1 h (intramuscular, 20 mg/kg, 1 hr, IM 20 mg/kg, read-out: Assayed Concentrations of EFdA, Mean): 1330 ng/mL
- concentration at 1 h (intramuscular, 20 mg/kg, 1 hr, IM 20 mg/kg, read-out: Assayed Concentrations of EFdA, individual rats): 957 ng/mL
- concentration at 4 h (intramuscular, 20 mg/kg, 4 hr, IM 20 mg/kg, read-out: Assayed Concentrations of EFdA, Mean): 610 ng/mL
- concentration at 4 h (intramuscular, 20 mg/kg, 4 hr, IM 20 mg/kg, read-out: Assayed Concentrations of EFdA, individual rats): 662 ng/mL
- concentration at 7 h (intramuscular, 20 mg/kg, 7 hr, IM 20 mg/kg, read-out: Assayed Concentrations of EFdA, Mean): 286 ng/mL
- concentration at 24 h (intramuscular, 20 mg/kg, 24 hr, IM 20 mg/kg, read-out: Assayed Concentrations of EFdA, Mean): 19.8 ng/mL
- concentration at 48 h (intramuscular, 20 mg/kg, 48 hr, IM 20 mg/kg, read-out: Assayed Concentrations of EFdA, Mean): 2.18 ng/mL
- concentration at 72 h (intramuscular, 20 mg/kg, 72 hr, IM 20 mg/kg, read-out: Assayed Concentrations of EFdA, Mean): 0.29 ng/mL
- concentration at 72 h (intramuscular, 20 mg/kg, 72 hr, IM 20 mg/kg, read-out: Assayed Concentrations of EFdA, individual rats): 0.301 ng/mL
- concentration at 6 day (intramuscular, 20 mg/kg, Day 6, IM 20 mg/kg, read-out: Assayed Concentrations of EFdA, Mean): 0.1 ng/mL
- concentration at 6 day (intramuscular, 20 mg/kg, Day 6, IM 20 mg/kg, read-out: Assayed Concentrations of EFdA, individual rats): 0.102 ng/mL
- concentration at 0.5 h (sc, 20 mg/kg, 0.5 hr, SC 20 mg/kg, read-out: Assayed Concentrations of EFdA, Mean): 1280 ng/mL
- concentration at 1 h (sc, 20 mg/kg, 1 hr, SC 20 mg/kg, read-out: Assayed Concentrations of EFdA, Mean): 1430 ng/mL
- concentration at 4 h (sc, 20 mg/kg, 4 hr, SC 20 mg/kg, read-out: Assayed Concentrations of EFdA, Mean): 639 ng/mL
- concentration at 4 h (sc, 20 mg/kg, 4 hr, SC 20 mg/kg, read-out: Assayed Concentrations of EFdA, individual rats): 534 ng/mL
- concentration at 7 h (sc, 20 mg/kg, 7 hr, SC 20 mg/kg, read-out: Assayed Concentrations of EFdA, Mean): 303 ng/mL
- concentration at 7 h (sc, 20 mg/kg, 7 hr, SC 20 mg/kg, read-out: Assayed Concentrations of EFdA, individual rats): 320 ng/mL
- concentration at 24 h (sc, 20 mg/kg, 24 hr, SC 20 mg/kg, read-out: Assayed Concentrations of EFdA, Mean): 7.98 ng/mL
- concentration at 48 h (sc, 20 mg/kg, 48 hr, SC 20 mg/kg, read-out: Assayed Concentrations of EFdA, Mean): 0.68 ng/mL
- concentration at 48 h (sc, 20 mg/kg, 48 hr, SC 20 mg/kg, read-out: Assayed Concentrations of EFdA, individual rats): 0.771 ng/mL
- concentration at 72 h (sc, 20 mg/kg, 72 hr, SC 20 mg/kg, read-out: Assayed Concentrations of EFdA, Mean): 0.241 ng/mL
- concentration at 72 h (sc, 20 mg/kg, 72 hr, SC 20 mg/kg, read-out: Assayed Concentrations of EFdA, individual rats): 0.251 ng/mL
- concentration at 6 day (sc, 20 mg/kg, Day 6, SC 20 mg/kg, read-out: Assayed Concentrations of EFdA, Mean): 0.04 ng/mL
- concentration at 6 day (sc, 20 mg/kg, Day 6, SC 20 mg/kg, read-out: Assayed Concentrations of EFdA, individual rats): 0.117 ng/mL
- concentration at 25 day (sc, 20 mg/kg, Day 25, SC 20 mg/kg, read-out: Assayed Concentrations of EFdA, Mean): 0.221 ng/mL
- concentration at 25 day (sc, 20 mg/kg, Day 25, SC 20 mg/kg, read-out: Assayed Concentrations of EFdA, individual rats): 0.221 ng/mL
- detectable duration of exposure of EFdA (rat IM and SC administration of 20 mg/kg): less than 8 days
